Results: US8420811B2, “Tetrahydroisoquinolines and intermediates therefor” (Bristol-Myers Squibb Company, priority 2008, dated 2013)
≈ marks a conversion by molar mass, not a printed value. Values belong to the compound of their own block, whether it stands above or below them.

Experiments:
Assay type in all cases: physicochemical
[1] = pH-Solubility profile (aqueous solubility); details: for solubility: aqueous solution, aqueous buffer
[2] = Solubility profile (USP definition) in solvents
pKa = experiment: pKa
Distribution coefficient = experiment: Distribution coefficient
Solution pH = details: at about 1 μg/mL concentration in water

solubility ([1]; at pH 2.0): 15600 µg/mL (≈ 42.6 mM) | solubility ([1]; at pH 4.4): 1760 µg/mL (≈ 4.8 mM) | solubility ([1]; at solution pH 6.5 and above): ≤ 1 µg/mL
SMILES: CN1Cc2cc(-c3ccc(N)nn3)ccc2[C@H](c2ccc3ccccc3c2)C1 [Compound 2, (S)-6-(2-methyl-4-(naphthalen-2-yl)-1,2,3,4-tetrahydroisoquinolin-7-yl)pyridazin-3-amine]

aqueous solubility (in words) ([1]; general statement, no pH given): high aqueous solubility | Solubility profile (USP definition) ([2]; PEG 400): sparingly soluble: PEG 400 | Solubility profile (USP definition) ([2]; n-heptane): practically insoluble: n-heptane | Solubility profile (USP definition) ([2]; tetrahydrofuran): freely soluble: tetrahydrofuran | pKa (pKa; first of two printed pKa values): 4.9 | pKa (pKa; second of two printed pKa values): 7.8 | Distribution coefficient Log Do/b (Distribution coefficient; at pH 6.5): 3.10 | Distribution coefficient Log Do/b (Distribution coefficient; at pH 7.4): 3.82
SMILES: CN1Cc2cc(-c3ccc(N)nn3)ccc2[C@H](c2ccc3ccccc3c2)C1 [Form N-1, 6-[(4S)-1,2,3,4-tetrahydro-2-methyl-4-(2-naphthalenyl)-7-isoquinolinyl]-3-pyridazinamine]
Solubility profile (USP definition) ([2]; N,N-dimethylacetamide): soluble: N,N-dimethylacetamide, dimethylsulfoxide | Solubility profile (USP definition) ([2]; acetone): slightly soluble: isopropanol, acetone, ethanol, methanol | Solubility profile (USP definition) ([2]; acetonitrile): very slightly soluble: acetonitrile, ethyl acetate, n-butanol | Solubility profile (USP definition) ([2]; dichloromethane): slightly soluble: isopropanol, acetone, ethanol, methanol | Solubility profile (USP definition) ([2]; dimethylsulfoxide): soluble: N,N-dimethylacetamide, dimethylsulfoxide | Solubility profile (USP definition) ([2]; ethanol): slightly soluble: isopropanol, acetone, ethanol, methanol | Solubility profile (USP definition) ([2]; ethyl acetate): very slightly soluble: acetonitrile, ethyl acetate, n-butanol | Solubility profile (USP definition) ([2]; isopropanol): slightly soluble: isopropanol, acetone, ethanol, methanol | Solubility profile (USP definition) ([2]; methanol): slightly soluble: isopropanol, acetone, ethanol, methanol | Solubility profile (USP definition) ([2]; n-butanol): very slightly soluble: acetonitrile, ethyl acetate, n-butanol | Solubility profile (USP definition) ([2]; propylene glycol): slightly soluble: isopropanol, acetone, ethanol, methanol | Solution pH (Solution pH): ~7.0 at about 1 μg/mL concentration in water
